Experimental data as given in patent US9968098B2, “Synergistic Bacillus thuringiensis subsp. aizawai, Bacillus thuringiensis subsp. kurstaki and cyantraniliprole mixtures for diamondback moth, beet armyworm, southwestern corn borer, and corn earworm” (Valent BioSciences LLC, priority 2016, dated 2018).
Read-outs that look alike come from different tables or passages of the source.

Experiments:
cabbage looper larvae = test: Leaf dip test, cabbage looper larvae; type: in vivo; settings: Trichoplusia ni, foliar, Bta/Btk 0.8125 ppm, cyantraniliprole 0.50 ppm, mixture 0.8125 ppm + 0.50 ppm (Ratio 1:0.62), read-out: % Efficacy
Description: (§1) Sympatico™ emulsifiable suspension (available from Valent BioSciences LLC) was used as the source of Bacillus thuringiensis subsp. aizawai and Bacillus thuringiensis kurstaki. Sympatico™ contains about a 1:0.67 ratio of Bacillus thuringiensis subsp. kurstaki fermentation solids, spores and toxins to Bacillus thuringiensis subsp. aizawai fermentation solids, spores and toxins. Belt® was used as the source of cyantraniliprole. […] In each example below, the studies were conducted as follows.
(§2) For these tests, standardized laboratory leaf dip methods were used to inoculate plant material with treatment(s). Dry, treated leaves were placed into Petri dishes (100×25 mm) containing filter paper wetted with 500 μl of distilled H2O (“dH2O”). Each dish was then infested with between 5 and 10 larvae, dependent on species. Efficacy ratings were taken at specified intervals. Synergy ratings were calculated for each test.
(§3) % Cexp=A+B−(AB/100), where % Cexp is the expected efficacy and “in which A and B are the control levels given by the single [insecticides].
In this study, the response of cabbage looper larvae to amounts of Bacillus thuringiensis subsp. aizawai, Bacillus thuringiensis subsp. kurstaki and cyantraniliprole was observed.
Bacillus thuringiensis subsp. aizawai/Bacillus thuringiensis subsp. kurstaki was applied at a concentration of 0.8125 ppm (0.8125 μg/ml). […]

corn earworm larvae = test: Leaf dip test, corn earworm larvae; type: in vivo; settings: Helicoverpa zea, foliar, Bta/Btk 2.6 ppm, cyantraniliprole 10.0 ppm, mixture 2.6 ppm + 10.0 ppm (Ratio 1:3.85), read-out: % Efficacy
Description: In each example below, the studies were conducted as follows.
as §2
% Cexp=A+B−(AB/100), where % Cexp is the expected efficacy and “in which A and B are the control levels given by the single [insecticides]. […] Adopting a conservative approach, Applicant will determine if synergy is present at ratios of ≥1.15.
In this study, the response of corn earworm larvae to amounts of Bacillus thuringiensis subsp. aizawai, Bacillus thuringiensis subsp. kurstaki and cyantraniliprole was observed.
Bacillus thuringiensis subsp. aizawai/Bacillus thuringiensis subsp. kurstaki was applied at a concentration of 2.6 ppm (2.6 μg/ml). Cyantraniliprole was applied at a concentration of 10.0 ppm (10.0 μg/ml). The Bacillus thuringiensis subsp. aizawai/Bacillus thuringiensis kurstaki/cyantraniliprole mixture was applied at a concentration of 2.6 ppm Bacillus thuringiensis subsp. kurstaki/Bacillus thuringiensis subsp. aizawai and 10.0 ppm cyantraniliprole.

sugarcane borer larvae = test: Leaf dip test, sugarcane borer larvae; type: in vivo; settings: Diatraea saccharalis, foliar, Bta/Btk 0.8125 ppm, cyantraniliprole 1.0 ppm, mixture 0.8125 ppm + 1.0 ppm (Ratio 1:1.23), read-out: % Efficacy
Excerpt: (§4) The following examples were used to determine the synergy of Bacillus thuringiensis subsp. aizawai, Bacillus thuringiensis subsp. kurstaki and cyantraniliprole when controlling diamondback moth, beet armyworm, sugarcane borer, soybean looper, corn earworm, cabbage looper, and southwestern corn borer. Sympatico™ emulsifiable suspension (available from Valent BioSciences LLC) was used as the source of Bacillus thuringiensis subsp. aizawai and Bacillus thuringiensis kurstaki. Sympatico™ contains about a 1:0.67 ratio of Bacillus thuringiensis subsp. kurstaki fermentation solids, spores and toxins to Bacillus thuringiensis subsp. aizawai fermentation solids, spores and toxins. Belt® was used as the source of cyantraniliprole. […] In each example below, the studies were conducted as follows.
as §2
(§5) % Cexp=A+B−(AB/100), where % Cexp is the expected efficacy and “in which A and B are the control levels given by the single [insecticides]. […]

soybean looper larvae = test: Leaf dip test, soybean looper larvae; type: in vivo, Chrysodeixis includens; settings: foliar, Bta/Btk 0.26 ppm, cyantraniliprole 1.0 ppm, mixture 0.26 ppm + 1.0 ppm (Ratio 1:15), read-out: % Efficacy
Description: Belt® was used as the source of cyantraniliprole. […] In each example below, the studies were conducted as follows.
as §2, §3
In this study, the response of soybean looper larvae to Bacillus thuringiensis subsp. aizawai, Bacillus thuringiensis subsp. kurstaki and cyantraniliprole was observed.
Bacillus thuringiensis subsp. aizawai/Bacillus thuringiensis subsp. kurstaki was applied at a concentration of 0.26 ppm (0.26 μg/ml). Cyantraniliprole was applied at a concentration of 1.0 ppm (1.0 μg/ml). The Bacillus thuringiensis subsp. aizawai/Bacillus thuringiensis kurstaki/cyantraniliprole mixture was applied at a concentration of 0.26 ppm Bacillus thuringiensis subsp. aizawai/Bacillus thuringiensis subsp. kurstaki and 1.0 ppm cyantraniliprole.

diamondback moth larvae = test: Leaf dip test, diamondback moth larvae; type: in vivo; settings: Plutella xylostella, foliar, Bta/Btk 0.8125 ppm, cyantraniliprole 0.12 ppm, mixture 0.8125 ppm + 0.12 ppm (Ratio 1:0.12), read-out: % Efficacy
Excerpt: The following examples were used to determine the synergy of Bacillus thuringiensis subsp. aizawai, Bacillus thuringiensis subsp. kurstaki and cyantraniliprole when controlling diamondback moth, beet armyworm, sugarcane borer, soybean looper, corn earworm, cabbage looper, and southwestern corn borer. Sympatico™ emulsifiable suspension (available from Valent BioSciences LLC) was used as the source of Bacillus thuringiensis subsp. aizawai and Bacillus thuringiensis kurstaki. Sympatico™ contains about a 1:0.67 ratio of Bacillus thuringiensis subsp. kurstaki fermentation solids, spores and toxins to Bacillus thuringiensis subsp. aizawai fermentation solids, spores and toxins. Belt® was used as the source of cyantraniliprole. The present invention is not limited to the commercial products used in the examples. […]
For these tests, standardized laboratory leaf dip methods were used to inoculate plant material with treatment(s). […] Synergy ratings were calculated for each test. […]
In order to determine synergy, rates below normal field rate ranges must be used. If normal field rate ranges are used, all of the larvae would die (combining a lethal or near lethal dose of Bacillus thuringiensis subsp. aizawai and Bacillus thuringiensis subsp. kurstaki with a lethal dose of cyantraniliprole would most likely lead to larvae death) in every treatment and synergy would not be able to be determined. […]

[1] = test system: southwestern corn borer larvae; test: Leaf dip test, southwestern corn borer larvae; type: in vivo, Diatraea grandiosella; settings: foliar, Bta/Btk 0.8125 ppm, cyantraniliprole 0.1 ppm, mixture 0.8125 ppm + 0.1 ppm (Ratio 1:0.12), read-out: % Efficacy
Excerpt: as §4, §2, §5

beet armyworm larvae = test: Leaf dip test, beet armyworm larvae; type: in vivo; settings: Spodoptera exigua, foliar, Bta/Btk 0.8125 ppm, cyantraniliprole 1.0 ppm, mixture 0.8125 ppm + 1.0 ppm (Ratio 1:1.23), read-out: % Efficacy
Description: as §1, §2, §3
Bacillus thuringiensis subsp. aizawai/Bacillus thuringiensis subsp. kurstaki was applied at a concentration of 0.8125 ppm (0.8125 μg/ml). Cyantraniliprole was applied at a concentration of 1.0 ppm (1.0 μg/ml). […]

CNC(=O)c1cc(C#N)cc(C)c1NC(=O)c1cc(Br)nn1-c1ncccc1Cl [Cyantraniliprole, 3-Bromo-1-(3-chloro-2-pyridinyl)-N-[4-cyano-2-methyl-6-(methylcarbamoyl)phenyl]-1H-pyrazole-5-carboxamide]
Emax at 0.5 ppm (cabbage looper larvae; 24 h after treatment): 18% | Emax at 0.5 ppm (cabbage looper larvae; 48 h after treatment): 40% | Emax at 10 ppm (corn earworm larvae; 24 h after treatment): 44% | Emax at 10 ppm (corn earworm larvae; 48 h after treatment): 60% | Emax at 1 ppm (sugarcane borer larvae; 24 h after treatment): 24% | Emax at 1 ppm (sugarcane borer larvae; 48 h after treatment): 35% | Emax at 1 ppm (soybean looper larvae; 24 h after treatment): 12% | Emax at 1 ppm (soybean looper larvae; 48 h after treatment): 41% | Emax at 0.12 ppm (diamondback moth larvae; 24 h after treatment): 29% | Emax at 0.12 ppm (diamondback moth larvae; 48 h after treatment): 52% | Emax at 0.1 ppm ([1]; 24 h after treatment): 15% | Emax at 0.1 ppm ([1]; 48 h after treatment): 32% | Emax at 1 ppm (beet armyworm larvae; 24 h after treatment): 20% | Emax at 1 ppm (beet armyworm larvae; 48 h after treatment): 35%
